Test system: CD8+ T cells in PBMCs from patients with metastatic castrate-resistant prostate cancer
Assay: Patient PBMC restimulation assay (in vitro immunogenicity of neoantigens)
Format: cell-based, human
Conditions: for Immunogenic: Patient PBMC restimulation, TNFα and IFNγ production by CD8+ T cells; for Maximum fold change over negative control: TNFα+IFNγ+CD8+ T cells, highest fold change across the PBMC donors evaluated, 9 mer peptide; for Maximum frequency of TNFα^+IFNγ^+CD8^+ T cells (Percent): greatest frequency among all tested PBMC donors, negative control 0.011-0.8 depending on patient
Procedure, shortened: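 PBMCs from metastatic castrate-resistant prostate cancer patients were stimulated with 9-mer neoantigen peptides (5 μg/mL final) plus IL-15 for 13 days, with IL-2 added during culture, and restimulated on day 12. Live CD3+CD8+ TNFα+/IFNγ+ frequency was measured by flow cytometry. A response was positive at ≥2-fold over the DMSO control.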

Sequence | Immunogenic | Maximum fold change over negative control | Maximum frequency of TNFα^+IFNγ^+CD8^+ T cells (Percent)
SLYHREKQLIAMDSAI [Neoantigen P22] | Yes | 5.00 | 0.120%
YEAGMTLGEKFRVGNCKHLKMTRP [Neoantigen P82] | Yes | 3.46 | 0.970%
YEAGMTLGGKILFFLFLLLPLSPFSLIF [Neoantigen P87] | Yes | 3.24 | 0.120%

From patent US20230035403A1, “Method For Determining Responsiveness To Prostate Cancer Treatment” (Janssen Biotech, Inc., priority 2020, published 2023)
